Test results published in patent publication US11970448B2, “Monomers capable of dimerizing in an aqueous solution, and methods of using same” (CORNELL UNIVERSITY, priority 2011, dated 2024).
Counter-ions that a name gives are not always drawn. Like-named read-outs stand apart in the source and are kept apart here.

Biological target: T1, recominbant human tryptase, beta, from lung (Homo sapiens, UniProt P20231)
T1 construct: purchased Promega or Enzo Life Sciences G5631 or BML-SE418
Assay: Inhibition of tryptase activity by monomers and multimers (Boc-Gln-Ala-Arg-AMC fluorescence)
Format: biochemical
Conditions: monomers against tryptase
Method in brief: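 Recombinant human lung β-tryptase (1 nM final; stock with heparin sulfate and 1 M NaCl) preincubated with test substance, then 200 μM Boc-Gln-Ala-Arg-AMC added in 50 mM HEPES, 150 mM NaCl, 100 μM EDTA, 0.02% Tween-20, pH 7.4. AMC fluorescence (ex 367/em 468 nm) read every 30 s for 15–30 min; IC50 from Vmax concentration-response curves.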

[1] = Table 5, read-out: Monomer IC50 range
[2] = read-out: IC50 range group of additional monomers (boronic acid, benzooxaborole, ligands)
[3] = entry marked (1:10), read-out: IC50 range group of additional monomers marked (1:10)

T1 sequence (P20231 31-275): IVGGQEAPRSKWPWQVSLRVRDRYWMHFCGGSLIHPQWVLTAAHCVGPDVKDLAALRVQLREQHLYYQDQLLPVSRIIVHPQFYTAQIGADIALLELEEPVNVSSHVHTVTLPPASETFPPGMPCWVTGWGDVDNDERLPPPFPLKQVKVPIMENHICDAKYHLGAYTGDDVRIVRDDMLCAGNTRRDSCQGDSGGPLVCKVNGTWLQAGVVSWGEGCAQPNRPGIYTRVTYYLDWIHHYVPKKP

Compound | IC50 [1] | IC50 [2] | IC50 [3]
NCc1cccc(C2CCN(C(=O)c3cccc(NC(=O)C(O)C4(O)CCC4)c3)CC2)c1 (stereo not shown) [T21 (Diol), N-(3-(4-(3-(aminomethyl)phenyl)piperidine-1-carbonyl)phenyl)-2-hydroxy-2-(1-hydroxycyclobutyl)acetamide] | 0.1 to 1000 nM | 0.1 to 1000 nM | –
NCc1cccc(C2CCN(C(=O)/C=C\c3ccc(O)c(O)c3)CC2)c1 [T24cis, (Z)-1-(4-(3-(aminomethyl)phenyl)piperidin-1-yl)-3-(3,4-dihydroxyphenyl)prop-2-en-1-one] | 1000 to 10000 nM | 1000 to 10000 nM | –
NCc1cccc(C2CCN(C(=O)c3ccc(O)c(C(=O)NOc4ccccc4)c3)CC2)c1 [T92OPH] | – | 1000 to 10000 nM | –
CN(Cc1ccccc1B(O)O)c1ccc2c(C(=O)N3CCC(c4cccc(CN)c4)CC3)cccc2c1 [T154] | – | 1000 to 10000 nM | –
NCc1cccc(C2CCN(C(=O)/C=C/c3ccc(O)c(CO)c3)CC2)c1 [T40, (E)-1-(4-(3-(aminomethyl)phenyl)piperidin-1-yl)-3-(4-hydroxy-3-(hydroxymethyl)phenyl)prop-2-en-1-one] | 1000 to 10000 nM | 1000 to 10000 nM | –
Cc1cc(C(=O)N2CCC(c3cccc(CN)c3)CC2)cc(-c2cccc(B(O)O)c2)c1C [T107] | – | 1000 to 10000 nM | –
NCc1cccc(C2CCN(C(=O)c3cccc(NC(=O)C4CC5CCC4C(O)C5O)c3)CC2)c1 (racemic) [T141EXOANTI, (±) exo-N-(3-(4-(3-(aminomethyl)phenyl)piperidine-1-carbonyl)phenyl)-5,6-anti-dihydroxybicyclo[2.2.2]octane-2-carboxamide.] | – | 1000 to 10000 nM | –
CC(C)(C)OC(=O)NCc1cccc(C2CCN(C(=O)c3cccc(NC(=O)C(=O)C(C)(C)O)c3)CC2)c1 [T55, tert-butyl 3-(1-(3-(3-hydroxy-3-methyl-2-oxobutanamido)benzoyl)piperidin-4-yl)benzylcarbamate] | 0.1 to 1000 nM | – | –
NCc1cccc(C2CCN(C(=O)Cc3ccc(O)c(F)c3)CC2)c1 [T54A, 1-(4-(3-(aminomethyl)phenyl)piperidin-1-yl)-2-(3-fluoro-4-hydroxyphenyl)ethanone] | 1000 to 10000 nM | – | –
CONC(=O)c1cc(C)cc(C(=O)N2CCC(c3cccc(CN)c3)CC2)c1O [T136A] | – | 0.1 to 1000 nM | –
NCc1cccc(C2CCN(C(=O)c3cc(O)c(O)c(Cl)c3)CC2)c1 [T78, (4-(3-(aminomethyl)phenyl)piperidin-1-yl)(3-chloro-4,5-dihydroxyphenyl)methanone] | 0.1 to 1000 nM | 0.1 to 1000 nM | –
CONC(=O)c1ccc(CC(=O)N2CCC(c3cccc(CN)c3)CC2)cc1O [T85 Å] | – | – | 0.1 to 1000 nM
NCc1cccc(C2CCN(C(=O)c3cccc(NC(=O)C4CC5CCC4C(O)C5O)c3)CC2)c1 (racemic) [T141ENDOANTI, (±) endo-N-(3-(4-(3-(aminomethyl)phenyl)piperidine-1-carbonyl)phenyl)-5,6-anti-dihydroxybicyclo[2.2.2]octane-2-carboxemide.] | – | 0.1 to 1000 nM | –
NCc1cccc(C2CCN(C(=O)c3cccc(-c4cccc(B(O)O)c4)c3)CC2)c1 [T35, 3′-(4-(3-(aminomethyl)phenyl)piperidine-1-carbonyl)biphenyl-3-ylboronic acid] | 0.1 to 1000 nM | 0.1 to 1000 nM | –
NCc1cccc(C2CCN(C(=O)C3CC4CCC3C(O)C4O)CC2)c1 (racemic) [T142ENDOANTI, (±) endo (4-(3-(aminomethyl)phenyl)piperidin-1-yl)(-5,6-anti-dihydroxybicyclo[2.2.2]octan-2-yl)methanone] | – | 0.1 to 1000 nM | –
NCc1ccc(C(=O)NCc2ccc(OCCC(=O)N3CC(=O)[C@H](O)C3)cc2)cc1 [CF12, (R)-4-(aminomethyl)-N-(4-(3-(3-hydroxy-4-oxopyrrolidin-1-yl)-3-oxopropoxy)benzyl)benzamide hydrochloride] | 1000 to 10000 nM | – | –
NCc1ccc2c(c1)C1(CCN(C(=O)Cc3ccc(B(O)O)c(F)c3)CC1)CO2 [T54BASPIRO] | – | 1000 to 10000 nM | –
CSc1sc(C(=O)N2CCC3(CC2)COc2ccc(CN)cc23)cc1-c1cccc2c1C(C)OB2O (stereo not shown) [T117GEMMONO] | – | 0.1 to 1000 nM | –
NCc1cccc(C2CCN(C(=O)c3ccc4ccn(CC(O)(C(=O)O)c5ccccc5)c4c3)CC2)c1 (stereo not shown) [T84, 3-(6-(4-(3-(aminomethyl)phenyl)piperidine-1-carbonyl)-1H-indol-1-yl)-2-hydroxy-2-phenylpropanoic acid] | 0.1 to 1000 nM | – | 0.1 to 1000 nM
CC(O)(Cn1ccc2cc(C(=O)N3CCC(c4cccc(CN)c4)CC3)ccc21)C(=O)O (stereo not shown) [T81, 3-(5-(4-(3-(aminomethyl)phenyl)piperidine-1-carbonyl)-1H-indol-1-yl)-2-hydroxy-2-methylpropanoic acid] | 0.1 to 1000 nM | – | 0.1 to 1000 nM
NCc1cccc(C2CCN(C(=O)c3cccc(C(=O)N4C[C@@H](O)[C@H](O)C4)c3)CC2)c1 [T26diol cis, (4-(3-(aminomethyl)phenyl)piperidin-1-yl)(3-((3R,4R)-3,4-dihydroxypyrrolidine-1-carbonyl)phenyl)methanone] | 1000 to 10000 nM | 1000 to 10000 nM | –
NCc1cccc(C2CCN(C(=O)c3cccc(C(=O)N4C[C@@H](O)[C@@H](O)C4)c3)CC2)c1 [T26diol trans, (4-(3-(aminomethyl)phenyl)piperidin-1-yl)(3-((3S,4R)-3,4-dihydroxypyrrolidine-1-carbonyl)phenyl)methanone] | 1000 to 10000 nM | 1000 to 10000 nM | –
